In ChEMBL document CHEMBL1142974, “Design, synthesis, and evaluation of the antiproliferative activity of a series of novel fused xanthenone aminoderivatives in human breast cancer cells” (J Med Chem, 2007):
The source made the active and inactive calls. No cut-off for these calls is given here.

Tested on: MDA-MB-231
Test: Growth inhibition of human MDA-MB-231 cells at 100 uM by WST-1 method after 72 hrs
Format: functional, cell-based
Details: not given

How did the Activity turn out when CCN(CC)CCNc1cc2nc[nH]c2c2oc3ccccc3c(=O)c12 was run?
The Activity was “Active”.

How did the Activity turn out when CN(C)CCNc1cc2nc[nH]c2c2oc3ccccc3c(=O)c12 was run?
The Activity was “Active”.

Tested on: MDA-MB-231
Test: Antiproliferative activity against human MDA-MB-231 cells by WST-1 method after 72 hrs
Format: functional, cell-based
Details: MDA-MB-231, 72 h

CCN(CC)CCn1nc2c3c(c4[nH]cnc4cc31)Oc1ccccc1-2 was tested. Which IC50 did it give?
Its IC50 is 8.5 µM.

How did the IC50 turn out when CCN(CC)CCn1nc2c3c(c4[nH]c(C)nc4cc31)Oc1ccccc1-2 was run?
Its IC50 is 18 µM.

CN(C)CCn1nc2c3c(c4[nH]cnc4cc31)Oc1ccccc1-2 was tested. Which IC50 did it give?
The IC50 was 6.5 µM.

For Cc1nc2cc3c4c(nn3CCN(C)C)-c3ccccc3Oc4c2[nH]1, which IC50 is on record?
Its IC50 is 17 µM.
